The text below walks through data of US9550811B2, “Peptide scaffold design” (BIONOR IMMUNO AS, priority 2010, dated 2017).

Assay [1] concerns PBMC samples from HCV patients. Kind of assay: Human IFN-gamma cytotoxic T-cell (CTL) response by ELISPOT assay. The format is cell-based. On the procedure:
Human IFN-Gamma Cytotoxic T-Cell (CTL) Response by ELISPOT Assay
Briefly, at day 1, PBMC samples from HCV patients were incubated in flasks (430 000 PBMCs/cm2) for 2 h at 37° C., 5% CO2 in covering amount of culture media (RPMI 1640 Fisher Scientific; Cat No. PAAE15-039 supplemented with L-Glutamine, (MedProbe Cat. No. 13E17-605E, 10% Foetal Bovine serum (FBS), Fisher Scientific Cat. No. A15-101) and Penicillin/Streptomycin, (Fisher Acientific Cat. No. P11-010) in order to allow adherence of monocytes. Non-adherent cells were isolated, washed, and frozen in 10% V/V DMSO in FBS until further usage. Adherent cells were carefully washed with culture media, followed by incubation at 37° C. until day 3 in culture media containing 2 μg/ml final concentration of hrGM-CSF (Xiamen amoytop biotech co, cat no: 3004.9090.90) & 1 μg/ml hrIL-4 (Invitrogen, Cat no: PHC0043), and this procedure was then repeated at day 6. At day 7, cultured dendritic cells (5 000-10 000 per well) were added to ELISPOT (Millipore multiscreen HTS) plates coated with 0.5 μg/well anti-human γ Interferon together with thawed autologous non-adherent cells (200 000 per well), antigen samples (1-8 ug/ml final concentration for peptide antigens; 5 ug/ml final concentration for Concanavalin A (Sigma, Cat no: C7275) or PHA (Sigma, Cat no: L2769)) & anti-Anergy antibodies (0.03-0.05 ug/ml final concentration for both anti-PD-1 (eBioscience, cat no: 16-9989-82) & anti-PD-L1 (eBioscience, cat no: 16-5983-82)). Plates were incubated overnight and spots were developed according to manufacturer. Spots were read on ELISPOT reader (CTL-ImmunoSpot® S5 UV Analyzer).

Assay [2] relates to DC-cells. Description: Cell penetration assay: staining for biotinylated peptides, dendritic cells gated as CD11c+. Format: cell-based, human. The following applies: low concentration of peptides (208 uM). The method, then: A set of peptides were biotinylated on N-terminal, and different combinations of aminoacids, with respect to length and type, were added to the sequence box X^1, X^3 and X^4 in the peptides as illustrated by the diagram below. The peptides were tested on cells grown from one individual blood donor.
(§1) 96-well U-bottom polystyrene plates (NUNC, cat no: 163320) were used for staining of human PBMCs. Briefly, 8 ul of N- or C-terminally biotinylated peptides according to table 1 or table 2 (i.e. 5 mM, 2.5 mM & 1.25 mM tested for each peptide) were incubated at 37° C. for 2 h with 40 ul of PBMC (12.5×10^6 cells/ml) from blood donors. Cells were then washed 3× with 150 ul of Cellwash (BD, cat no: 349524), followed by resuspension of each cell pellet with 100 ul of Trypsin-EDTA (Sigma, cat no: T4424), then incubated at 37° C. for 5 min. Trypsinated cells were then washed 3× with 150 ul of Cellwash (BD, cat no: 349524), followed by resuspension with BD Cytofix/Cytoperm™ plus (BD, cat no: 554715), then incubated at 4° C. for 20 min according to manufacturer. Cells were then washed 2× with 150 ul PermWash (BD, cat no: 554715). Cells were then stained with Streptavidin-APC (BD, cat no: 554067) & Anti-hCD11c (eBioscience, cat no: 12-0116) according to manufacturer at 4° C. for 30 min aiming to visualize biotinylated peptides & dendritic cells, respectively. Cells were then washed 3× with 150 ul PermWash, followed by resuspension in staining buffer (BD, cat no: 554656) before flow cytometry. Dendritic cells were gated as CD11c+ events outside lymphocyte region (i.e. higher FSC & SSC signals than lymphocytes). 200 000 total cells were acquired on a FACSCanto II flow cytometer with HTS loader, and histograms for both total cells & dendritic cells with respect to peptide-fluorescence (i.e. GeoMean) were prepared.
As shown in table 4 the peptides according to the invention had the ability to allocate through the cell membrane.

Assay [3] deals with human PBMCs. Kind of assay: Extracellular staining for biotinylated peptides (flow cytometry). The format is cell-based. The method, then:
as §1, with “peptide; all peptides manufactured by Schafer)” for “peptide)”, “349524),” for “349524), followed by resuspension of each cell pellet with 100 ul of Trypsin-EDTA (Sigma, cat no: T4424), then incubated at 37° C. for 5 min. Trypsinated cells were then washed 3× with 150 ul of Cellwash (BD, cat no: 349524), followed by resuspension with BD Cytofix/Cytoperm™ plus (BD, cat no: 554715), then incubated at 4° C. for 20 min according to manufacturer. Cells were then washed 2× with 150 ul PermWash (BD, cat no: 554715). Cells were”, “of Cellwash (BD, cat no: 349524),” for “PermWash,”
Background: A flow cytometer gives signals particle by particle.

The test system of assay [4] is human PBMCs. The format is cell-based.
The mark [5] stands for this setting: Example 4, negative control = 1.00.

Values joined by “and” are separate entries in the source; they are usually repeats but may differ in a detail not shown here. Equal values may be shown once. Read-outs that look alike come from different tables or passages of the source.

Regarding “RRIRNLGRVIETLTGBRLZGYIPLIGA [compound 42]”, the “IFN-g ELISPOT (T-cell spots)” value in assay [1] (Patient A (HCV patient), listed as 310-42) is 75 and 80; in assay [1] (Patient D (HCV patient), listed as 310-42) it was 13 and 11. The results for the “Results on DC-cells (geomean peptide-fluorescence)” value (from here on “Results on DC-cells”) in assay [2] (BC 16) and in assay [2] (BC43) were 74920 and 65811, respectively.

Consider “RRSRNLGKVIDTLTCRRLMGYIPLVGA [compound 13]”, for which, in assay [3], the “Extracellular staining, median” value worked out at 16.80. Also, the “Intracellular staining, median” value in assay [4] was 21.43.

“EEGYIPLVGAPLGEEVARALAHGVRV [compound 10, HCV (Not scaffold)]”: the “Extracellular staining, median” value in assay [3] was found to be 1.95. The “Intracellular staining, median” value in assay [4] stood at 1.16.

As for RRSRNLGKVIDTLTCBRLMGYIPLVGA [42b], the “IFN-g ELISPOT (T-cell spots)” value was 90 and 115 in assay [1] (Patient A (HCV patient), listed as 310-42b); 60 and 80 in assay [1] (Patient B (HCV patient), listed as 310-42b); 13 and 11 in assay [1] (Patient D (HCV patient), listed as 310-42b). The “Results on DC-cells” value in assay [2] (BC 16) is recorded as 61968; in assay [2] (BC43) it was 19181.

Regarding “RRGGGQIVGGVYLLPRRGPRLGVRATR [compound 14]”, the “Extracellular staining, median” value in assay [3] is listed as 17.00. Further, the “Intracellular staining, median” value in assay [4] is given as 4.81.

For the substance “RQIKIWFQNRRMKWKK [P-biotin, reference compound]”, the “Extracellular staining, median” value in assay [3] (setting [5]) is listed as 9.15. Also, in assay [4], the “Intracellular staining, median” value is on record as 2.73. Besides, in assay [2] (BC43), the “Results on DC-cells” value was 26212 and 33545.

“RRGPVVHLTLRRRGQAGDDFS [compound 2, Neg control in scaffold, reference compound]”: the “Extracellular staining, median” value in assay [3] is on record as 1.77. The “Intracellular staining, median” value in assay [4] is recorded as 4.12.

As for WGYIPLVGAPLGRRVARALAHGVRV [compound 19], the “Extracellular staining, median” value in assay [3] is on record as 1.37. Further, in assay [4], the “Intracellular staining, median” value was determined as 17.41. Also, the figures for the “Results on DC-cells” value in assay [2] (BC 16) and in assay [2] (BC43) were 8417 and 6372, respectively.

Take “RRIRNLGRVIETLTLZGYIPLIGARRIRNLGRVIETLTLZGYIPLIGAR [compound 20]”: the “Extracellular staining, median” value in assay [3] is reported as 126.5. Besides, the “Intracellular staining, median” value in assay [4] is listed as 13.25.

As to “Concanavalin A [ConA, reference compound]”, the “IFN-g ELISPOT (T-cell spots)” value in assay [1] (Patient A (HCV patient)) was 5090 and 5035; in assay [1] (Patient B (HCV patient)), 2605 and 2725; in assay [1] (Patient C (HCV patient)) it was 1355 and 700; in assay [1] (Patient D (HCV patient)), 529 and 512.

Regarding GYIPLVGAPLGGVARALAHGVRV [compound 5], the “Extracellular staining, median” value in assay [3] was 2.08. The “Intracellular staining, median” value in assay [4] was 1.84.

As for RRGYIPLVGAPLGBRVARALAHGVRV [51b], the “IFN-g ELISPOT (T-cell spots)” value was 45 and 40 in assay [1] (Patient A (HCV patient), listed as 310-51b); 50 and 85 in assay [1] (Patient B (HCV patient), listed as 310-51b); 45 and 75 in assay [1] (Patient C (HCV patient), listed as 310-51b); 9 and 13 in assay [1] (Patient D (HCV patient), listed as 310-51b). Also, the “Results on DC-cells” value is 7000 in assay [2] (BC 16) and 6082 in assay [2] (BC43).

Regarding “GGGYIPLVGAPLGGGVARALAHGVRV [compound 11, HCV (Not scaffold)]”, the “Extracellular staining, median” value in assay [3] is reported as 2.62. In addition, the “Intracellular staining, median” value in assay [4] was 2.01.

As to “PVVHLTLRQAGDDFSR [N-biotin, reference compound]”, in assay [3] (setting [5]), the “Extracellular staining, median” value stood at 1.00. Also, in assay [4], the “Intracellular staining, median” value came out at 1.00. Further, the “Results on DC-cells” value in assay [2] (BC 16) is 3591 and 2271; in assay [2] (BC 16, listed as n-biotin), 3745; in assay [2] (BC43) it was 3631; in assay [2] (BC43, listed as n-biotin), 1967.

For the substance “RRGYIPLVGAPLGRRRVARALAHGVRV [compound 9]”, the “Extracellular staining, median” value in assay [3] is reported as 2.06. Moreover, in assay [4], the “Intracellular staining, median” value is 3.25.
